Like-named read-outs stand apart in the source and are kept apart here.
Experiments:
[1] = biological target: T1, HCV NS5B RdRp genotype 1b (Hepatitis C virus genotype 1b, UniProt Q9WMX2); assay: Modified HCV NS5B RdRp enzyme assay (preincubation protocol); format: biochemical
T1 construct: The protein was expressed with an 18 amino acid C-terminal truncation to enhance the solubility; made in house; host or cells: E. coli BL21(DE3), pET21a vector
Procedure: HCV NS5B RdRp cloning, expression, and purification. The cDNA encoding the NS5B protein of HCV, genotype 1b, was cloned into the pET21a expression vector. The protein was expressed with an 18 amino acid C-terminal truncation to enhance the solubility. The E. coli competent cell line BL21(DE3) was used for expression of the protein. Cultures were grown at 37° C. for ˜4 hours until the cultures reached an optical density of 2.0 at 600 nm. The cultures were cooled to 20° C. and induced with 1 mM IPTG. Fresh ampicillin was added to a final concentration of 50 μg/ml and the cells were grown overnight at 20° C.
Cell pellets (3L) were lysed for purification to yield 15-24 mgs of purified NS5B. The lysis buffer consisted of 20 mM Tris-HCl, pH 7.4, 500 mM NaCl, 0.5% triton X-100, 1 mM DTT, 1 mM EDTA, 20% glycerol, 0.5 mg/ml lysozyme, 10 mM MgCl2, 15 ug/ml deoxyribonuclease I, and Complete TM protease inhibitor tablets (Roche). After addition of the lysis buffer, frozen cell pellets were resuspended using a tissue homogenizer. To reduce the viscosity of the sample, aliquots of the lysate were sonicated on ice using a microtip attached to a Branson sonicator. The sonicated lysate was centrifuged at 100,000×g for 1 hr at 4° C. and filtered through a 0.2 μm filter unit (Corning).
The protein was purified using three sequential chromatography steps: Heparin sepharose CL-6B, polyU sepharose 4B, and Hitrap SP sepharose (Pharmacia). The chromatography buffers were identical to the lysis buffer but contained no lysozyme, deoxyribonuclease I, MgCl2 or protease inhibitor and the NaCl concentration of the buffer was adjusted according to the requirements for charging the protein onto the column. Each column was eluted with a NaCl gradient which varied in length from 5-50 column volumes depending on the column type. After the final chromatography step, the resulting purity of the enzyme is >90% based on SDS-PAGE analysis. The enzyme was aliquoted and stored at −80° C.
Standard HCV NS5B RdRp enzyme assay. HCV RdRp genotype 1b assays were run in a final volume of 60 μl in 96 well plates (Costar 3912). The assay buffer is composed of 20 mM Hepes, pH 7.5, 2.5 mM KCl, 2.5 mM MgCl2, 1 mM DTT, 1.6 U RNAse inhibitor (Promega N2515), 0.1 mg/ml BSA (Promega R3961), and 2% glycerol. All compounds were serially diluted (3-fold) in DMSO and diluted further in water such that the final concentration of DMSO in the assay was 2%. HCV RdRp genotype 1b enzyme was used at a final concentration of 28 nM. A polyA template was used at 6 nM, and a biotinylated oligo-dT12 primer was used at 180 nM final concentration. Template was obtained commercially (Amersham 27-4110). Biotinylated primer was prepared by Sigma Genosys. 3H-UTP was used at 0.6 μCi (0.29 μM total UTP). Reactions were initiated by the addition of enzyme, incubated at 30° C. for 60 min, and stopped by adding 25 μl of 50 mM EDTA containing SPA beads (4 μg/μl, Amersham RPNQ 0007). Plates were read on a Packard Top Count NXT after >1 hr incubation at room temperature.
Modified HCV NS5B RdRp enzyme assay. A modified enzyme assay was performed essentially as described for the standard enzyme assay except for the following: The biotinylated oligo dT12 primer was precaptured on streptavidin-coated SPA beads by mixing primer and beads in assay buffer and incubating at room temperature for one hour. Unbound primer was removed after centrifugation. The primer-bound beads were resuspended in 20 mM Hepes buffer, pH 7.5 and used in the assay at final concentrations of 20 nM primer and 0.67 μg/μl beads. Order of addition in the assay: enzyme (14 nM) was added to diluted compound followed by the addition of a mixture of template (0.2 nM), 3H-UTP (0.6 μCi, 0.29 μM), and primer-bound beads, to initiate the reaction; concentrations given are final. Reactions were allowed to proceed for 4 hours at 30° C.
IC50 values for compounds were determined using seven different [I]. […]

HCV replicon cells = assay: HCV replicon FRET assay; format: cell-based; conditions: Hepatitis C virus
Excerpt: FRET Assay Preparation. To perform the HCV FRET screening assay, 96-well cell culture plates were used. The FRET peptide (Anaspec, Inc.) (Taliani et al., Anal. Biochem. 1996, 240, 60-67) contains a fluorescence donor, EDANS, near one end of the peptide and an acceptor, DABCYL, near the other end. The fluorescence of the peptide is quenched by […] resonance energy transfer (RET) between the donor and the acceptor, but as the NS3 protease cleaves the peptide the products are released from RET quenching and the fluorescence of the donor becomes apparent. The assay reagent was made as follows: 5× cell Luciferase cell culture lysis reagent from Promega (#E153A) diluted to 1× with dH2O, NaCl added to 150 mM final, the FRET peptide diluted to 20 μM final from a 2 mM stock.
To prepare plates, HCV replicon cells, with or without a Renilla luciferase reporter gene, were trypsinized and placed into each well of a 96-well plate with titrated test compounds added in columns 3 through 12; columns 1 and 2 contained a control compound (HCV protease inhibitor), and the bottom row contained cells without compound. The plates were then placed in a CO2 incubator at 37° C.
Assays. Subsequent to addition of the test compounds described above (FRET Assay Preparation), at various times the plate was removed and Alamar blue solution (Trek Diagnostics, #00-100) was added per well as a measure of cellular toxicity. After reading in a Cytoflour 4000 instrument (PE Biosystems), plates were rinsed with PBS and then used for FRET assay by the addition of 30 ul of the FRET peptide assay reagent described above (FRET Assay Preparation) per well. The plate was then placed into the Cytoflour 4000 instrument which had been set to 340 excite/490 emission, automatic mode for 20 cycles and the plate read in a kinetic mode. Typically, the signal to noise using an endpoint analysis after the reads was at least three-fold. Alternatively, after Alamar blue reading, plates were rinsed with PBS, 50 ul of DMEM (high glucose) without phenol red was added and plates were then used for luciferase assay using the Promega Dual-Glo Luciferase Assay System.
Compound analysis was determined by quantification of the relative HCV replicon inhibition and the relative cytotoxicity values. To calculate cytoxicity values, the average Alamar Blue fluorescence signals from the control wells were set as 100% non-toxic. The individual signals in each of the compound test wells were then divided by the average control signal and multiplied by 100% to determine […]. To calculate the HCV replicon inhibition values, an average background value was obtained from the two wells containing the highest amount of HCV protease inhibitor at the end of the assay period. These numbers were similar to those obtained from naive Huh-7 cells.
The background numbers were then subtracted from the average signal obtained from the control wells and this number was used as 100% activity. The individual signals in each of the compound test wells were then divided by the averaged control values after background subtraction and multiplied by 100% to determine percent activity. EC50 values for a protease inhibitor titration were calculated as the concentration which caused a 50% reduction in FRET or luciferase activity. The two numbers generated for the compound plate, percent cytoxicity and percent activity were used to determine compounds of interest for further analysis.

[2] = HCV NS5B RdRp genotype 1b, preincubation protocol, read-out: IC50
[3] = HCV replicon cells, FRET assay, read-out: EC50

T1 sequence (Q9WMX2 2420-2992): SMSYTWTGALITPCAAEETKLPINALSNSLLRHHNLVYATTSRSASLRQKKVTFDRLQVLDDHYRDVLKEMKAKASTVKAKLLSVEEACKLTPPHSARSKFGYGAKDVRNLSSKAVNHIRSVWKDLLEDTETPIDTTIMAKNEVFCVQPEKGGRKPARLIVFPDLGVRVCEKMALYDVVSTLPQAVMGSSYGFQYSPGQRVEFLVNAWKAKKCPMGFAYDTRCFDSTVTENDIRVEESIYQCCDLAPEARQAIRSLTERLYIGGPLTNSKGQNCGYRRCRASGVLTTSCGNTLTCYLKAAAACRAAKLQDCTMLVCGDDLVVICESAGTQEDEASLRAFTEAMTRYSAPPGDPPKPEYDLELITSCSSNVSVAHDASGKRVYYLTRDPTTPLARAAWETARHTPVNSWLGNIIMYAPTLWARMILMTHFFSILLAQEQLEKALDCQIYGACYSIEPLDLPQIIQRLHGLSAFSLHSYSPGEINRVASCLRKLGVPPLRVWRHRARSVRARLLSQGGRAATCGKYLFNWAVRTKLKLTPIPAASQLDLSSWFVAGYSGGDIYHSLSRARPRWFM

SMILES	IC50 [1, 2]	EC50 (HCV replicon cells; [3])	IC50 [1]	EC50 (HCV replicon cells)
CNS(=O)(=O)NC(=O)c1ccc2c(C3CCCCC3)c3n(c2n1)CC(C(=O)N1C[C@@H](C)O[C@@H](C)C1)=Cc1cc(OC)ccc1-3	1 to 500 nM	500 to 10000 nM		
COc1ccc2c(c1)C=C(C(=O)N1C[C@@H](C)O[C@@H](C)C1)Cn1c-2c(C2CCCCC2)c2ccc(C(=O)NS(=O)(=O)N(C)C)nc21	1 to 500 nM	> 500 nM		
COc1ccc2c(c1)[C@@H]1C[C@]1(C(=O)N1[C@@H]3CC[C@H]1CN(C)C3)Cn1c-2c(C2CCCCC2)c2ccc(C(=O)NS(=O)(=O)N(C)C)nc21			1 to 500 nM	> 100 nM
COc1ccc2c(c1)[C@@H]1C[C@]1(C(=O)N1[C@@H]3CC[C@H]1CN(C)C3)Cn1c-2c(C2CCCCC2)c2ccc(C(=O)N(C)S(=O)(=O)N(C)C)nc21			500 to 10000 nM	> 100 nM
COc1ccc2c(c1)C=C(C(=O)N1C[C@@H](C)O[C@@H](C)C1)Cn1c-2c(C2CCCCC2)c2cccnc21	500 to 10000 nM	> 370 nM		
COC(=O)C1=Cc2cc(OC)ccc2-c2c(C3CCCCC3)c3ccc(C(=O)NS(=O)(=O)N(C)C)nc3n2C1	1 to 500 nM	500 to 10000 nM		
COc1ccc2c(c1)C=C(C(=O)N1C[C@@H](C)N(C)[C@@H](C)C1)Cn1c-2c(C2CCCCC2)c2ccc(C(=O)NS(=O)(=O)N(C)C)nc21	1 to 500 nM	1 to 500 nM		

From patent publication US7517872B2, “Compounds for the treatment of hepatitis C” (Bristol-Myers Squibb Company, priority 2007, dated 2009)
